According to ChEMBL document CHEMBL1201862, “PubChem BioAssay data set” (2004):
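Grown in 96-well plates, cells were treated for 48 hours with each compound at five concentrations. Insufficient inhibition: endpoint recorded as highest concentration tested. Abbreviation: GI50, concentration required for 50% inhibition of growth.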 The source made the active and inactive calls. Cut-off read from the data, not from the text of the source: active = GI50 up to about 1.1 µM and inactive = higher.

Key:
Experiment in all cases: growth of human tumour cells (NCI), 48 h
CCRF-CEM = test system: CCRF-CEM
DMS-114 = test system: DMS-114
EKVX = test system: EKVX
HCT-15 = test system: HCT-15
HOP-18 = test system: HOP-18
HOP-92 = test system: HOP-92
HT-29 = test system: HT-29
KM-20L2 = test system: KM-20L2
NCI/ADR-RES = test system: NCI/ADR-RES
SF-295 = test system: SF-295
SK-MEL-28 = test system: SK-MEL-28
SNB-78 = test system: SNB-78
UACC-62 = test system: UACC-62
XF498 = test system: XF498
786-0 = test system: 786-0
CAKI-1 = test system: CAKI-1

COC1C(O)C(n2ncc3c(SC)nc(SC)nc32)OC1C(O)CO (stereo not drawn)
GI50 (CCRF-CEM): > 100 µM (inactive) | GI50 (DMS-114): > 100 µM (inactive) | GI50 (EKVX): > 100 µM (inactive) | GI50 (HCT-15): > 100 µM | GI50 (HOP-18): > 100 µM (inactive) | GI50 (HOP-92): > 100 µM (inactive) | GI50 (HT-29): > 100 µM (inactive) | GI50 (KM-20L2): > 100 µM (inactive) | GI50 (NCI/ADR-RES): > 100 µM (inactive) | GI50 (SF-295): > 100 µM (inactive) | GI50 (SK-MEL-28): > 100 µM (inactive) | GI50 (SNB-78): > 100 µM (inactive) | GI50 (UACC-62): > 100 µM (inactive) | GI50 (XF498): > 100 µM (inactive)

Cc1ccc(S(=O)(=O)N(C=O)N=C2CCN(Cc3ccccc3)CC2)cc1
GI50 (786-0): > 100 µM (inactive) | GI50 (CAKI-1): > 100 µM (inactive) | GI50 (CCRF-CEM): > 100 µM (inactive) | GI50 (EKVX): > 100 µM (inactive) | GI50 (HCT-15): > 100 µM | GI50 (HOP-18): > 100 µM (inactive) | GI50 (HT-29): > 100 µM (inactive) | GI50 (KM-20L2): > 100 µM (inactive) | GI50 (SF-295): > 100 µM (inactive) | GI50 (SNB-78): > 100 µM (inactive) | GI50 (UACC-62): > 100 µM (inactive) | GI50 (XF498): > 100 µM (inactive)

C=CCOCCC(CC=C)C(=O)CC(=O)OC (stereo not drawn)
GI50 (CCRF-CEM): 4.23 µM (inactive) | GI50 (EKVX): > 100 µM (inactive) | GI50 (HCT-15): > 100 µM | GI50 (HOP-18): > 100 µM (inactive) | GI50 (HOP-92): 90.4 µM (inactive) | GI50 (HT-29): > 100 µM (inactive) | GI50 (KM-20L2): > 100 µM (inactive) | GI50 (SF-295): > 100 µM (inactive) | GI50 (SK-MEL-28): > 100 µM (inactive) | GI50 (UACC-62): 52.8 µM (inactive) | GI50 (XF498): > 100 µM (inactive)

CSc1nc(NC2OC(COC(C)=O)C(OC(C)=O)C(OC(C)=O)C2OC(C)=O)c2c(OC(C)=O)c(C)c(=O)oc2n1 (stereo not drawn)
GI50 (786-0): > 100 µM (inactive) | GI50 (CAKI-1): > 100 µM (inactive) | GI50 (CCRF-CEM): > 100 µM (inactive) | GI50 (DMS-114): > 100 µM (inactive) | GI50 (EKVX): > 100 µM (inactive) | GI50 (HCT-15): > 100 µM | GI50 (HOP-18): > 100 µM (inactive) | GI50 (HOP-92): > 100 µM (inactive) | GI50 (HT-29): > 100 µM (inactive) | GI50 (KM-20L2): > 100 µM (inactive) | GI50 (SF-295): > 100 µM (inactive) | GI50 (SNB-78): > 100 µM (inactive) | GI50 (UACC-62): > 100 µM (inactive) | GI50 (XF498): > 100 µM (inactive)

N#CC1=C(O)NC(O)=C(C#N)C1c1c(Cl)cccc1Cl
GI50 (CAKI-1): 30.1 µM (inactive) | GI50 (CCRF-CEM): > 100 µM (inactive) | GI50 (DMS-114): 18.8 µM (inactive) | GI50 (EKVX): 40.7 µM (inactive) | GI50 (HCT-15): 20.4 µM | GI50 (HOP-18): > 100 µM (inactive) | GI50 (HOP-92): 15.8 µM (inactive) | GI50 (HT-29): 39.4 µM (inactive) | GI50 (KM-20L2): 34.8 µM (inactive) | GI50 (SF-295): 34.8 µM (inactive) | GI50 (SK-MEL-28): 22.2 µM (inactive) | GI50 (SNB-78): 26.2 µM (inactive) | GI50 (UACC-62): 23.5 µM (inactive) | GI50 (XF498): 61.4 µM (inactive)

CN(C)CCCNC(=O)N/N=C/c1ccccc1
GI50 (CCRF-CEM): > 100 µM (inactive) | GI50 (DMS-114): > 100 µM (inactive) | GI50 (HCT-15): > 100 µM | GI50 (HOP-18): > 100 µM (inactive) | GI50 (HT-29): > 100 µM (inactive) | GI50 (SF-295): > 100 µM (inactive) | GI50 (SK-MEL-28): > 100 µM (inactive) | GI50 (SNB-78): > 100 µM (inactive) | GI50 (UACC-62): > 100 µM (inactive) | GI50 (XF498): > 100 µM (inactive)

O=C1NC(=O)C(CCO)(c2ccccc2)C(=O)N1
GI50 (CCRF-CEM): > 100 µM (inactive) | GI50 (DMS-114): > 100 µM (inactive) | GI50 (EKVX): > 100 µM (inactive) | GI50 (HCT-15): > 100 µM | GI50 (HOP-18): > 100 µM (inactive) | GI50 (HOP-92): > 100 µM (inactive) | GI50 (HT-29): > 100 µM (inactive) | GI50 (KM-20L2): > 100 µM (inactive) | GI50 (NCI/ADR-RES): > 100 µM (inactive) | GI50 (SF-295): > 100 µM (inactive) | GI50 (SK-MEL-28): > 100 µM (inactive) | GI50 (SNB-78): > 100 µM (inactive) | GI50 (UACC-62): > 100 µM (inactive) | GI50 (XF498): > 68.4 µM (inactive)

c1ccc2c(c1)NCc1cc3ccccc3nc1O2
GI50 (CAKI-1): > 100 µM (inactive) | GI50 (CCRF-CEM): > 68.5 µM (inactive) | GI50 (DMS-114): 99.5 µM (inactive) | GI50 (EKVX): > 100 µM (inactive) | GI50 (HCT-15): > 100 µM | GI50 (HOP-18): > 100 µM (inactive) | GI50 (HOP-92): > 100 µM (inactive) | GI50 (HT-29): 71.6 µM (inactive) | GI50 (NCI/ADR-RES): > 77.8 µM (inactive) | GI50 (SF-295): > 100 µM (inactive) | GI50 (SK-MEL-28): > 100 µM (inactive) | GI50 (SNB-78): > 100 µM (inactive) | GI50 (UACC-62): > 100 µM (inactive) | GI50 (XF498): > 100 µM (inactive)
